Experimental data from US20040247703A1, “Composition for inhibiting glutamate-mediated neurotoxicity comprising ginsenoside Rg3 or ginsenoside Rh2” (priority 2002, published 2004).

Assays:
NMDA receptor [1] = test: NMDA receptor-mediated Ca2+ influx by Ca2+-imaging technique (fura-2/AM) in cultured hippocampus nerve cells; format: cell-based, mouse; conditions: for % inhibition of NMDA receptor-mediated [Ca^2+]i infulx: cultured mouse hippocampus nerve cell; for inhibition effect for NMDA receptor activity, screening of pure 20(S) compounds, in words: 9 kinds of 20(S) compounds, FIG. 5; for NMDA receptor-mediated Ca^2+ influx inhibition, comparison of isomer forms, in words: Table 1 comparison of 20(S)-form with mixture of S-form and R-form
Experimental: (§1) Hippocampus nerve tissues were separated from an 18-day-old fetus to 1-day-old newborn white mouse using a dissection microscope. The tissues were treated with Leibovitz L-15 medium (Gibco, Grand Island, N.Y.) including 0.05% papain at 37° C. for 20 minutes. Then, the solution was washed with Ca^2+ or Mg^2+ free Hank's Balanced Salt Solution (Gibco, Grand Island, N.Y.) several times, and the single hippocampus nerve cell was separated mechanically by adjusting the pore size of the Pasteur pipette. The cell was cultured on a cover slip that was treated with poly-L-lysine in a concentration of 1.5×10^5 cell/ml.
(§2) The cell was cultured in a culturing solution of Neurobasla/B27 (Gibco, Grand Island, N.Y.) to which 0.5 mM L-glutamine, 25 μM glutamate, 25 μM 2-mercaptoethanol, 100 U/ml penicillin and 100 μg/ml streptomycin were added. Half of the medium was replaced twice a week with a medium having no added glutamate. Cells that were cultured for 7 to 15 days were used in the experiment.
Fura-2/AM (Molecular probes: Eugene, Oreg.) of the acetoxymethyl-ester form was used as a fluorescent Ca^2+ label. The hippocampus nerve cell was primarily incubated with 5 μM fura-2/AM and 0.001% Pluronic F-127 in HEPES buffer solution (unit mM: 150 NaCl, 5 KCl, 1 MgCl2,2 CaCl2,10 HEPES, 10 glucose, pH 7.4) at room temperature for 40 to 60 minutes and then washed with the HEPES buffer solution several times. After stabilizing the cell for 10 minutes, the change in intracellular Ca ion concentration was determined using an inverted microscope.
Specifically, the cell was exposed selectively to the excitation wavelengths (340 nm and 380 nm) from a xenon arc lamp by a computer-controlled filter wheel (Sutter Instruments, CA). Data was obtained every 2 seconds and a shutter was placed at the light-exposed portion so as to prevent any photo-toxicity on the cell. Emitter fluorescence light, which passed through a 515 nm long-pass filter, reached a cooling CCD camera. The ratios of intensity (340/380 nm) were converted to intracellular free Ca^2+ concentration ([Ca^2+]i) by digital fluorescence analyzer. Analysis of all image data was performed using Universal Imaging software (West Chester, Pa.).
Method for screening NMDA receptor inhibitor via NMDA receptor activity in a hippocampus nerve cell was performed by a Ca^2+-imaging technique using a Ca-dependent dye, fura-2/AM, as explained in Example 2.
Therefore, the system was used in the NMDA receptor inhibitor screening of ginseng components.
As stated above, the experiments of FIGS. 2A to 2C were to determine Ca^2+ influx caused by NMDA activity, when NMDA was administered to the cultured hippocampus nerve cell (5˜10 seconds), by using the Ca^2+-imaging technique. […]

NMDA receptor [2] = test: NMDA receptor-mediated membrane current by whole-cell patch-clamp in hippocampus nerve cells; format: cell-based, mouse; conditions: 10 μM; FIG. 2D
Experimental: as §1
as §2, with “Cells that were cultured for 7 to 15 days were used in the experiment.” left out
Whole-cell voltage-clamp recordation was carried out using a perforated patch-clamp method. […] After 10 minutes, the membrane current was determined. […]
As a solution that allows only the monovalent ion to pass the membrane to produce an electric current, Nystatin stock solution of 25 mg/ml was diluted into a concentration of 250 μg/ml and added to the internal solution. […] The membrane voltage was recorded using an EPC-9 amplifier and Pulse/Pulsefit software (HEKA, Germany). […]

[3] = system: white mouse hippocampus nerve cells; test: MTT assay, survival of nerve cells against cytotoxicity by NMDA; format: cell-based; conditions: pretreated 1 minute, NMDA 10 minutes, MTT after 24 hours; 100 μg/ml GTS, 10 μM Rg3; FIG. 3
Experimental: 3-(4,5-dimethylthiazole-2-yl)-2,5-diphenyltetrazolium bromide (MTT) assay was carried out to determine the survival rate of cells against cytotoxicity by NMDA in nerve cells. Primarily cultured white mouse hippocampus nerve cells were cultured in a 24-well plate, to which a Neurobasal/B27 (Gibco, Grand Island N.Y.) medium including 0.5 mM L-glutamine, 25 μM glutamate, 25 μM 2-mercaptoethanol, 100 U/ml penicillin and 100 μg/ml streptomycin was added for 6-14 days. The cells were pretreated with 100 μg/ml GTS and 10 μM Rg3 using a Mg^2+ free HEPES buffered solution including 1 μM glycine for 1 minute and then treated with NMDA for 10 minutes. Thereafter, the medium was exchanged with the normal culture medium. Twenty-four hours after such treatment, the cells were treated directly with a 50 μl MTT solution in phosphate buffered saline (PBS) (1 mg/ml). Four hours after MTT treatment, the supernatant was removed, and the produced formazan was resolved in 100 μl dimethylsulfoxide (DMSO). Optical density at 560 nm was read using an automated spectrophotometric plate reader.

cultured cortical neuron = conditions: literature (Kim, Y. C. et al. 1998); cited from earlier work
hippocampus nerve cells = conditions: literature (Lim, J. H. et al. 1997); cited from earlier work

SMILES | % inhibition of NMDA receptor-mediated [Ca^2+]i infulx (NMDA receptor [1]; 1 μM) [%] | inhibition effect for NMDA receptor activity, screening of pure 20(S) compounds, in words (NMDA receptor [1]) | NMDA receptor-mediated Ca^2+ influx inhibition, comparison of isomer forms, in words (NMDA receptor [1]) | cell viability against neurotoxicity caused by NMDA, in words [3] | glutamate-induced neurotoxicity in cultured cortical neuron, in words (cultured cortical neuron) | other results
CC(C)=CCC[C@](C)(O)[C@H]1CC[C@]2(C)[C@@H]1[C@H](O)C[C@@H]1[C@@]3(C)CC[C@H](O[C@@H]4O[C@H](CO)[C@@H](O)[C@H](O)[C@H]4O[C@@H]4O[C@H](CO)[C@@H](O)[C@H](O)[C@H]4O)C(C)(C)[C@@H]3CC[C@]12C [20(S)-ginsenoside Rg3] | 30.4 ± 2.3 | most excellent inhibition effect | – | – | – | –
CC(C)=CCC[C@](C)(O)[C@H]1CC[C@]2(C)[C@@H]1[C@H](O)C[C@@H]1[C@@]3(C)CC[C@H](O[C@@H]4O[C@H](CO)[C@@H](O)[C@H](O)[C@H]4O[C@@H]4O[C@H](CO)[C@@H](O)[C@H](O)[C@H]4O)C(C)(C)[C@@H]3CC[C@]12C [ginsenoside Rg3] | 31.2 ± 2.5 | – | equivalent efficacy regardless of an S-form or R-form isomer and their mixture | effectively increase cell viability | inhibited | NMDA receptor inhibition efficiency, screening of 10 ginsenosides, in words (NMDA receptor [1]; 10 μM, ginsenosides including isomers of C-20 position, FIGS. 2A and 2B): superior to those of other ginsenosides; IC50 (NMDA receptor [1]; Ca2+ influx on NMDA in cultured hippocampus nerve cell, read-out: IC50 of NMDA receptor inhibition (concentration dependence, FIG. 2C)): 3.8 µM; NMDA receptor-mediated inward current, in words (NMDA receptor [2]): inhibits the inward current
CC(C)=CCC[C@](C)(O)[C@H]1CC[C@]2(C)[C@@H]1[C@H](O)C[C@@H]1[C@@]3(C)CC[C@H](O[C@@H]4O[C@H](CO)[C@@H](O)[C@H](O)[C@H]4O)C(C)(C)[C@@H]3CC[C@]12C [20(S)-ginsenoside Rh2] | 47.1 ± 4.3 | most excellent inhibition effect | superior effect to the mixture of S-form and R-form isomers | – | – | –
N[C@H](CCCP(=O)(O)O)C(=O)O [D-APV, D(−)-2-amino-5-phosphono-pentanoic acid, reference compound] | – | – | – | effectively increase cell viability | – | Ca^2+ concentration ([Ca^2+]i) after NMDA application, in words (NMDA receptor [1]; FIG. 1, repeated NMDA applications): significantly decreased
CC(C)=CCC[C@](C)(O[C@@H]1O[C@H](CO[C@@H]2O[C@H](CO)[C@@H](O)[C@H](O)[C@H]2O)[C@@H](O)[C@H](O)[C@H]1O)[C@H]1CC[C@]2(C)[C@@H]1[C@H](O)C[C@@H]1[C@@]3(C)CC[C@H](O[C@@H]4O[C@H](CO)[C@@H](O)[C@H](O)[C@H]4O[C@@H]4O[C@H](CO)[C@@H](O)[C@H](O)[C@H]4O)C(C)(C)[C@@H]3CC[C@]12C [ginsenoside Rb1, reference compound] | – | – | – | – | inhibited | death of hippocampus nerve cells during cerebral ischemia, in words (hippocampus nerve cells): inhibits death of hippocampus nerve cells
CC(C)=CCC[C@](C)(O)[C@H]1CC[C@]2(C)[C@@H]1[C@H](O)C[C@@H]1[C@@]3(C)CC[C@H](O[C@@H]4O[C@H](CO)[C@@H](O)[C@H](O)[C@H]4O)C(C)(C)[C@@H]3CC[C@]12C [ginsenoside Rh2] | – | – | – | – | – | % inhibition of NMDA receptor-mediated [Ca^2+]i infulx (NMDA receptor [1]; 10 μM): 18.6 ± 2.7 %
